pIC50: −log10 of the molar value.
Columns and labels:
[1] = target: type IV phosphodiesterase; experiment: Type IV phosphodiesterase inhibiting activity; assay type: biochemical, human; settings: U937 type IV phosphodiesterase fraction, 0.28 μM cAMP, pH 7.5, 30° C., 30 minutes; read-out: PDEIV-IC50
Method: The following assay was used to evaluate the ability of the compound of the present invention to suppress type IV phosphodiesterase, according to Biochemical. Pharmacol. 48 (6), 1219-1223 (1994).
1) Type IV phosphodiesterase activity fractions were prepared as follows. Namely, human histiocytic lymphoma cell line U937 was cultured in an RPMI1640 medium containing 10% fetal calf serum to obtain 10^9 cells of U937. The cells were recovered by centrifugation and suspended in 40 ml of buffer A (20 mM bis-tris, 5 mM 2-mercaptoethanol, 2 mM benzamidine, 2 mM EDTA, 0.1 mM 4-(2-aminoethyl)benzensulfonyl hydrochloride, 50 mM sodium acetate, pH=6.5). The cells were broken by a sonication and centrifuged (4° C., 10,000 G, 10 minutes) to obtain a supernatant. This was filtered by a 0.45 μm filter to obtain the soluble fraction.
2) The soluble fraction obtained was applied into a 1×10 cm DEAE Sepharose column equalibrated with the buffer A. 120 ml of the buffer A containing a linear gradient solution of 0.05 to 1M sodium acetate was used to separate the phosphodiesterase and recover 24 5-ml fractions. Each of the fractions was measured for the cAMP phosphodiesterase activity.
3) The test compound was reacted at a desired concentration in a reaction mixture containing 20 mM tris-HCl (pH 7.5), 1 mM MgCl2, 100 μM EDTA, 330 μg/ml calf serum albumin, 10 μg/ml 5'-nucleotidase, 0.4 μCi ^3 H-cAMP (0.28 μM cAMP) and the type IV phosphodiesterase stored solution at 30° C. for 30 minutes. QAE-Sephadex suspended in 10 mM of hepes-Na (pH -7.0) was added to the reaction mixture which was then allowed to stand for 5 minutes, then the supernatant was obtained, QAE-Sephadex was further added, to the supernatant, and was allowed to stand for 5 minutes, then the supernatant was obtained and measured for radioactivity.

[2] = test system: TNF-α production by LPS stimulated macrophages; experiment: TNF-α production inhibitory activity by LPS stimulated macrophages; assay type: cell-based; settings: Macrophage, BALB/c mouse peritoneal macrophages, cultured for 8 hours, ELISA
Method: The following assay was used to evaluate the ability of the compound of the present invention to suppress TNF-α production by LPS stimulated macrophages according to Immunopharmacol. 29, 121-127 (1995).
1) 6 to 10 week old female BALB/c mice were used, 2 ml portions of thioglycolate were intraperitoneally administered, and the abdominal cavities were washed by 10 ml of PBS after 4 days, whereby 1 to 2×10^7 peritoneal cells were obtained per mouse. These were suspended in a hemocyte solution (0.75% ammonium chloride, 17 mM tris-hydrochlorate buffer, pH7.2), centrifuged, then resuspended in an RPMI1640 medium including 10% fetal calf serum and seeded in a 96-well cell culture plate at a density of 1×10^5 cells/50 μl/well. Since these cells adhered strongly to the tissue culture plate and were positive in nonspecific esterase staining, they were used for the test as mouse peritoneal macrophages. Mouse peritoneal macrophages were precultured overnight at 37° C. in […] for the experiment.
2) E. Coli (serum type 055:B5) derived LPS was dissolved in PBS in a concentration of 1 mg/ml, then sterilized by filtration. The test compound was dissolved in DMSO to make a 1000-fold concentration solution of the final concentration of use. 10 μl of the above LPS stock solution (final concentration 10 μg/ml) and 1 μl of the tested substance stock solution were added and mixed in 0.5 ml of RPMI1640 medium containing 10% fetal calf serum. This was added to the above cells at 50 μl/well and cultured for 8 hours. The cultured supernatant was recovered from each well and the TNF-α concentration was measured by the ELISA method (Cytoscreen® Immunoassay Kit Mouse TNF-α, BioSourse International).
The comparative example was the compound described in WO-A-97-04775, Example 1, mentioned above.

| pIC50 [1] | pIC50 [2] | Compound |
| --- | --- | --- |
| 5.28 | 5.00 | CCn1cc(C(=O)NCCc2ccncc2)c(=O)c2ccc(C)nc21 [Comp. Ex., N-(2-(4-pyridyl)ethyl)-1-ethyl-7-methyl-1,8-naphthyridin-1,4-dihydro-4-one-3-carboxyamide, reference compound] |
| 7.64 | 7.00 | COC(=O)N1CC[C@H](n2cc(C(=O)Nc3c(Cl)cccc3Cl)c(=O)c3cccnc32)C1 [Example 9, (S)-N-(2,6-dichlorophenyl)-1-(1-methoxycarbonylpyrrolidin-3-yl)-1,4-dihydro[1,8]naphthyridin-4-one-3-carboxamide] |
| 7.27 | 6.52 | COC(=O)N1CC[C@@H](n2cc(C(=O)Nc3c(Cl)cccc3Cl)c(=O)c3cccnc32)C1 [Example 16, (R)-N-(2,6-dichlorophenyl)-1-(1-methoxycarbonylpyrrolidin-3-yl)-1,4-dihydro[1,8]naphthyridin-4-one-3-carboxamide] |
| 8.32 | 8.00 | COC(=O)N1CC[C@@H](n2cc(C(=O)Nc3c(Cl)cncc3Cl)c(=O)c3cccnc32)C1 [Example 17, (R)-N-(3,5-dichloropyridin-4-yl)-1-(1-methoxycarbonylpyrrolidin-3-yl)-1,4-dihydro[1,8]naphthylidin-4-one-3-carboxamide] |
| 8.33 | 9.00 | CCNC(=O)N1CC[C@H](n2cc(C(=O)Nc3c(Cl)cncc3Cl)c(=O)c3cccnc32)C1 [Example 18, (S)-N-(3,5-dichloropyridin-4-yl)-1-(1-ethylaminocarbonylpyrrolidin-3-yl)-1,4-dihydro[1,8]naphthylidin-4-one-3-carboxamide] |
| 8.20 | 8.15 | CNC(=S)N1CC[C@H](n2cc(C(=O)Nc3c(Cl)cncc3Cl)c(=O)c3cccnc32)C1 [Example 19, (S)-N-(3,5-dichloropyridin-4-yl)-1-(1-methylaminothiocarbonylpyrrolidin-3-yl)-1,4-dihydro[1,8]naphthylidin-4-one-3-carboxamide] |
| 7.92 | 5.52 | NC(=O)N1CC[C@H](n2cc(C(=O)Nc3c(Cl)cncc3Cl)c(=O)c3cccnc32)C1 [Example 20, (S)-N-(3,5-dichloropyridin-4-yl)-1-(1-aminocarbonylpyrrolidin-3-yl)-1,4-dihydro[1,8]naphthylidin-4-one-3-carboxamide] |
| 8.89 | 8.00 | CCNC(=O)N1CCC(n2cc(C(=O)Nc3c(Cl)cncc3Cl)c(=O)c3cccnc32)CC1 [Example 27, N-(3,5-dichloropyridin-4-yl)-1-(1-ethylaminocarbonylpiperidin-4-yl)-1,4-dihydro[1,8]naphthylidin-4-one-3-carboxamide] |
| 8.11 | 7.00 | CC(=O)N1CCC(n2cc(C(=O)Nc3c(Cl)cncc3Cl)c(=O)c3cccnc32)CC1 [Example 28, N-(3,5-dichloropyridin-4-yl)-1-(1-acetylpiperidin-4-yl)-1,4-dihydro[1,8]naphthylidin-4-one-3-carboxamide] |
| 5.66 | 5.40 | COC(=O)N1CC(n2cc(C(=O)Nc3cccnc3)c(=O)c3cccnc32)C1 [Example 32, N-(3-pyridyl)-1-(1-methoxycarbonylazetidin-3-yl)-1,4-dihydro[1,8]naphthylidin-4-one-3-carboxamide] |
| 5.70 | 5.30 | COC(=O)N1CC(n2cc(C(=O)Nc3ccncc3)c(=O)c3cccnc32)C1 [Example 33, N-(4-pyridyl)-1-(1-methoxycarbonylazetidin-3-yl)-1,4-dihydro[1,8]naphthylidin-4-one-3-carboxamide] |
| 8.00 | 5.30 | O=C(Nc1c(Cl)cncc1Cl)c1cn([C@@H]2CCOC2)c2ncccc2c1=O [Example 39, N-(3,5-dichloropyridin-4-yl)-1-[(R)-tetrahydro-3-furanyl]-1,4-dihydro[1,8]naphthylidin-4-one-3-carboxamide] |
| 6.72 | 5.60 | O=C(Nc1ccncc1)c1cn([C@H]2CCOC2)c2ncccc2c1=O [Example 43, N-(4-pyridyl)-1-[(S)-tetrahydro-3-furanyl]-1,4-dihydro[1,8]naphthylidin-4-one-3-carboxamide] |
| 8.57 | 8.00 | O=C(Nc1c(Cl)cncc1Cl)c1cn([C@H]2CCOC2)c2ncccc2c1=O [Example 44, N-(3,5-dichloropyridine-4-yl)-1-[(S)-tetrahydro-3-furanyl]-1,4-dihydro[1,8]naphthylidin-4-one-3-carboxamide] |
| 7.89 | 6.30 | O=C(Nc1c(Cl)cncc1Cl)c1cn(C2CCN(Cc3ccccc3)CC2)c2ncccc2c1=O [Example 46, N-(3,5-dichloropyridin-4-yl)-1-(benzylpiperidin-4-yl)-1,4-dihydro[1,8]naphthylidin-4-one-3-carboxamide] |
| 6.44 | – | O=C(Nc1cccnc1)c1cn([C@H]2CC[C@H](O)CC2)c2ncccc2c1=O [Example 172, N-(3-pyridyl)-1-(trans-4-hydroxycyclohexyl)-1,4-dihydro[1,8]naphthylidin-4-one-3-carboxamide] |
| 6.89 | – | Cc1cnccc1NC(=O)c1cn([C@H]2CC[C@H](O)CC2)c2ncccc2c1=O [Example 174, N-(3-methylpyridin-4-yl)-1-(trans-4-hydroxycyclohexyl)-1,4-dihydro[1,8]naphthylidin-4-one-3-carboxamide] |
| 6.04 | – | Cc1cc(NC(=O)c2cn([C@H]3CC[C@H](O)CC3)c3ncccc3c2=O)sn1 [Example 176, N-(3-methylisothiazol-5-yl)-1-(trans-4-hydroxycyclohexyl)-1,4-dihydro[1,8]naphthylidin-4-one-3-carboxamide] |
| 5.48 | – | Cc1cc(NC(=O)c2cn([C@H]3CC[C@H](O)CC3)c3ncccc3c2=O)on1 [Example 178, N-(3-methylisoxazol-5-yl)-1-(trans-4-hydroxycyclohexyl)-1,4-dihydro[1,8]naphthylidin-4-one-3-carboxamide] |
| 5.35 | – | Cc1noc(NC(=O)c2cn([C@H]3CC[C@H](O)CC3)c3ncccc3c2=O)c1C [Example 180, N-(3,4-dimethylisoxazol-5-yl)-1-(trans-4-hydroxycyclohexyl)-1,4-dihydro[1,8]naphthylidin-4-one-3-carboxamide] |
| 5.64 | – | Cc1nn(C)c(C)c1NC(=O)c1cn([C@H]2CC[C@H](O)CC2)c2ncccc2c1=O [Example 184, N-(1,3,5-trimethylpyrazol-4-yl)-1-(trans-4-hydroxycyclohexyl)-1,4-dihydro[1,8]naphthylidin-4-one-3-carboxamide] |
| 8.39 | – | CC1(O)CCC(n2cc(C(=O)Nc3c(Cl)cncc3Cl)c(=O)c3cccnc32)CC1 (stereo not shown) [Example 192, N-(3,5-dichloropyridin-4-yl)-1-(4-hydroxy-4-methylcyclohexyl)-1,4-dihydro[1,8]naphthylidin-4-one-3-carboxamide] |
| 6.02 | – | CC1(O)CCC(n2cc(C(=O)Nc3ccncc3)c(=O)c3cccnc32)CC1 (stereo not shown) [Example 194, N-(4-pyridinyl)-1-(4-hydroxy-4-methylcyclohexyl)-1,4-dihydro[1,8]naphthylidin-4-one-3-carboxamide] |
| 8.21 | – | CC(=O)O[C@H]1CC[C@H](n2cc(C(=O)Nc3c(Cl)cncc3Cl)c(=O)c3cccnc32)CC1 [Example 197, trans-4-[3-{[(3,5-dichloropyridin-4-yl)amino]carbonyl}-1,4-dihydro[1,8]naphthylidin-1-yl]cyclohexyl acetate] |
| – | 7.00 | COc1ccc(C2CNC(=O)C2)cc1OC1CCCC1 (stereo not shown) [Rolipram, reference compound] |
